Patent publication US6943183B2 (Pfizer Inc, priority 2000, dated 2005)

Biological target: T1, SF9 affinity purified rat FPT (Rattus norvegicus, UniProt Q02293+Q04631)
T1 construct: made in house; host or cells: Sf9 insect cells
Test: PFT (FPT) inhibitory activity assay, radiolabeled farnesyl pyrophosphate and biotinyl peptide, streptavidin beads
Type: biochemical
Details: HEPES buffer pH 7.4, 30° C., 30 minutes; read-out: FTase IC50
In short: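 Rat FPT expressed in SF9 cells was incubated 30 minutes at 30° C. with compound (in 10% DMSO), radiolabeled farnesyl pyrophosphate and biotinylated peptide. Buffer: HEPES pH 7.4, ZnCl2 20 μM, MgCl2 and DTT 5 mM each, 0.1% PEG 8000, 5 mM potassium phosphate (also run without phosphate). Product captured on streptavidin beads in magnesium acetate/H3PO4 stop buffer.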

Compound | IC50 [nM]
O=C(O)CCNC(=O)c1ccccc1S(=O)(=O)Cc1c(O[C@H](Cn2ccnc2)c2ccccc2)ccc2c1CCCC2=O [Compound 167, N-2-{[(2-{[(1S)-2-(1H-Imidazol-1-yl)-1-phenylethyl]oxy}-5-oxo-5,6,7,8-tetrahydro-1-naphthalenyl)methyl]sulfonyl}benzoyl-β-alanine] | 7
O=C(O)CCNC(=O)c1cccc(S(=O)(=O)Cc2c(O[C@H](Cn3ccnc3)c3ccccc3)ccc3c2CCCC3=O)c1 [Compound 168, N-3-{[(2-{[(1S)-2-(1H-Imidazol-1-yl)-1-phenylethyl]oxy}-5-oxo-5,6,7,8-tetrahydro-1-naphthalenyl)methyl]sulfonyl}benzoyl-β-alanine] | 10
O=C(O)CCNC(=O)c1ccccc1SCc1c(O[C@H](Cn2ccnc2)c2ccccc2)ccc2c1CCCC2=O [Compound 169, N-2-{[(2-{[(1S)-2-(1H-Imidazol-1-yl)-1-phenylethyl]oxy}-5-oxo-5,6,7,8-tetrahydro-1-naphthalenyl)methyl]sulfanyl}benzoyl-β-alanine] | 7
O=C(O)CCNC(=O)c1ccc(SCc2c(O[C@H](Cn3ccnc3)c3ccccc3)ccc3c2CCCC3=O)cc1 [Compound 170, N-4-{[(2-{[(1S)-2-(1H-Imidazol-1-yl)-1-phenylethyl]oxy}-5-oxo-5,6,7,8-tetrahydro-1-naphthalenyl)methyl]sulfanyl}benzoyl-β-alanine] | 7
O=C(O)CCNC(=O)c1cccc(SCc2c(O[C@H](Cn3ccnc3)c3ccccc3)ccc3c2CCCC3=O)c1 [Compound 171, N-3-{[(2-{[(1S)-2-(1H-Imidazol-1-yl)-1-phenylethyl]oxy}-5-oxo-5,6,7,8-tetrahydro-1-naphthalenyl)methyl]sulfanyl}benzoyl-β-alanine] | 6
O=C(NCCO)c1cccc(SCc2c(O[C@H](Cn3ccnc3)c3ccccc3)ccc3c2CCCC3=O)c1 [Compound 172, N-(2-Hydroxyethyl)-3-{[(2-{[(1S)-2-(1H-imidazol-1-yl)-1-phenylethyl]oxy}-5-oxo-5,6,7,8-tetrahydro-1-naphthalenyl)methyl]sulfanyl}benzamide] | 5
O=C(NCCO)c1ccccc1SCc1c(O[C@H](Cn2ccnc2)c2ccccc2)ccc2c1CCCC2=O [Compound 173, N-(2-Hydroxyethyl)-2-{[(2-{[(1S)-2-(1H-imidazol-1-yl)-1-phenylethyl]oxy}-5-oxo-5,6,7,8-tetrahydro-1-naphthalenyl)methyl]sulfanyl}benzamide] | 4
O=C(NCCO)c1ccc(SCc2c(O[C@H](Cn3ccnc3)c3ccccc3)ccc3c2CCCC3=O)cc1 [Compound 174, N-(2-Hydroxyethyl)-4-{[(2-{[(1S)-2-(1H-imidazol-1-yl)-1-phenylethyl]oxy}-5-oxo-5,6,7,8-tetrahydro-1-naphthalenyl)methyl]sulfanyl}benzamide] | 3
O=C(NCCO)c1ccc(S(=O)(=O)Cc2c(O[C@H](Cn3ccnc3)c3ccccc3)ccc3c2CCCC3=O)cc1 [Compound 175, N-(2-Hydroxyethyl)-4-{[(2-{[(1S)-2-(1H-imidazol-1-yl)-1-phenylethyl]oxy}-5-oxo-5,6,7,8-tetrahydro-1-naphthalenyl)methyl]sulfonyl}benzamide] | 10
O=C(NCCO)c1cccc(S(=O)(=O)Cc2c(O[C@H](Cn3ccnc3)c3ccccc3)ccc3c2CCCC3=O)c1 [Compound 176, N-(2-Hydroxyethyl)-3-{[(2-{[(1S)-2-(1H-imidazol-1-yl)-1-phenylethyl]oxy}-5-oxo-5,6,7,8-tetrahydro-1-naphthalenyl)methyl]sulfonyl}benzamide] | 7
CN(C)CCNC(=O)c1ccc(SCc2c(O[C@H](Cn3ccnc3)c3ccccc3)ccc3c2CCCC3=O)cc1 [Compound 177, N-[2-(Dimethylamino)ethyl]-4-{[(2-{[(1S)-2-(1H-imidazol-1-yl)-1-phenylethyl]oxy}-5-oxo-5,6,7,8-tetrahydro-1-naphthalenyl)methyl]sulfanyl}benzamide] | 3
CN(C)CCNC(=O)c1cccc(SCc2c(O[C@H](Cn3ccnc3)c3ccccc3)ccc3c2CCCC3=O)c1 [Compound 178, N-[2-(Dimethylamino)ethyl]-3-{[(2-{[(1S)-2-(1H-imidazol-1-yl)-1-phenylethyl]oxy}-5-oxo-5,6,7,8-tetrahydro-1-naphthalenyl)methyl]sulfanyl}benzamide] | 8
CN(C)CCNC(=O)c1ccccc1SCc1c(O[C@H](Cn2ccnc2)c2ccccc2)ccc2c1CCCC2=O [Compound 179, N-[2-(Dimethylamino)ethyl]-2-{[(2-{[(1S)-2-(1H-imidazol-1-yl)-1-phenylethyl]oxy}-5-oxo-5,6,7,8-tetrahydro-1-naphthalenyl)methyl]sulfanyl}benzamide] | 6
CN(C)CCNC(=O)c1ccccc1S(=O)(=O)Cc1c(O[C@H](Cn2ccnc2)c2ccccc2)ccc2c1CCCC2=O [Compound 180, N-[2-(Dimethylamino)ethyl]-2-{[(2-{[(1S)-2-(1H-imidazol-1-yl)-1-phenylethyl]oxy}-5-oxo-5,6,7,8-tetrahydro-1-naphthalenyl)methyl]sulfonyl}benzamide] | 6
CN(C)CCNC(=O)c1ccc(S(=O)(=O)Cc2c(O[C@H](Cn3ccnc3)c3ccccc3)ccc3c2CCCC3=O)cc1 [Compound 181, N-[2-(Dimethylamino)ethyl]-4-{[(2-{[(1S)-2-(1H-imidazol-1-yl)-1-phenylethyl]oxy}-5-oxo-5,6,7,8-tetrahydro-1-naphthalenyl)methyl]sulfonyl}benzamide] | 20

The next lines start with the values.

IC50 [nM] | Compound
10 | CN(C)CCNC(=O)c1cccc(S(=O)(=O)Cc2c(O[C@H](Cn3ccnc3)c3ccccc3)ccc3c2CCCC3=O)c1 [Compound 182, N-[2-(Dimethylamino)ethyl]-3-{[(2-{[(1S)-2-(1H-imidazol-1-yl)-1-phenylethyl]oxy}-5-oxo-5,6,7,8-tetrahydro-1-naphthalenyl)methyl]sulfonyl}benzamide]
7 | CCOC(=O)CCNC(=O)c1ccccc1S(=O)(=O)Cc1c(O[C@H](Cn2ccnc2)c2ccccc2)ccc2c1CCCC2=O [Compound 183, Ethyl 3-[(2-{[(2-{[(1S)-2-(1H-Imidazol-1-yl)-1-phenylethyl]oxy}-5-oxo-5,6,7,8-tetrahydro-1-naphthalenyl)methyl]sulfonyl}benzoyl)amino]propanoate]
4 | CCOC(=O)C(C)NC(=O)c1ccccc1S(=O)(=O)Cc1c(O[C@H](Cn2ccnc2)c2ccccc2)ccc2c1CCCC2=O (stereo partly drawn) [Compound 185, Ethyl 2-[(2-{[(2-{[(1S)-2-(1H-Imidazol-1-yl)-1-phenylethyl]oxy}-5-oxo-5,6,7,8-tetrahydro-1-naphthalenyl)methyl]sulfonyl}benzoyl)amino]propanoate]
4 | CCOC(=O)C(C)NC(=O)c1ccccc1SCc1c(O[C@H](Cn2ccnc2)c2ccccc2)ccc2c1CCCC2=O (stereo partly drawn) [Compound 186, Ethyl 2-[(2-{[(2-{[(1S)-2-(1H-Imidazol-1-yl)-1-phenylethyl]oxy}-5-oxo-5,6,7,8-tetrahydro-1-naphthalenyl)methyl]sulfanyl}benzoyl)amino]propanoate]
7 | CCOC(=O)CCNC(=O)c1ccccc1SCc1c(O[C@H](Cn2ccnc2)c2ccccc2)ccc2c1CCCC2=O [Compound 187, Ethyl 3-[(2-{[(2-{[(1S)-2-(1H-Imidazol-1-yl)-1-phenylethyl]oxy}-5-oxo-5,6,7,8-tetrahydro-1-naphthalenyl)methyl]sulfanyl}benzoyl)amino]propanoate]
10 | CNC(=O)c1ccc(S(=O)(=O)Cc2c(O[C@H](Cn3ccnc3)c3ccccc3)ccc3c2CCCC3=O)cc1 [Compound 189, 4-{[(2-{[(1S)-2-(1H-2-Imidazol-1-yl)-1-phenylethyl]oxy}-5-oxo-5,6,7,8-tetrahydro-1-naphthalenyl)methyl]sulfonyl}-N-methylbenzamide]
8 | CNC(=O)c1cccc(S(=O)(=O)Cc2c(O[C@H](Cn3ccnc3)c3ccccc3)ccc3c2CCCC3=O)c1 [Compound 190, 3-{[(2-{[(1S)-2-(1H-imidazol-1-yl)-1-phenylethyl]oxy}-5-oxo-5,6,7,8-tetrahydro-1-naphthalenyl)methyl]sulfonyl}-N-methylbenzamide]
2 | CNC(=O)c1ccc(SCc2c(O[C@H](Cn3ccnc3)c3ccccc3)ccc3c2CCCC3=O)cc1 [Compound 191, 4-{[(2-{[(1S)-2-(1H-Imidazol-1-yl)-1-phenylethyl]oxy}-5-oxo-5,6,7,8-tetrahydro-1-naphthalenyl)methyl]sulfanyl}-N-methylbenzamide]
7 | CNC(=O)c1cccc(SCc2c(O[C@H](Cn3ccnc3)c3ccccc3)ccc3c2CCCC3=O)c1 [Compound 192, 3-{[(2-{[(1S)-2-(1H-Imidazol-1-yl)-1-phenylethyl]oxy}-5-oxo-5,6,7,8-tetrahydro-1-naphthalenyl)methyl]sulfanyl}-N-methylbenzamide]
5 | CNC(=O)c1ccccc1SCc1c(O[C@H](Cn2ccnc2)c2ccccc2)ccc2c1CCCC2=O [Compound 193, 2-{[(2-{[(1S)-2-(1H-Imidazol-1-yl)-1-phenylethyl]oxy}-5-oxo-5,6,7,8-tetrahydro-1-naphthalenyl)methyl]sulfanyl}-N-methylbenzamide]
0.2 | C[C@@H](O)CNC(=O)c1ccccc1SCc1c(O[C@H](Cn2ccnc2)c2ccccc2)ccc2c1CCCC2=O [Compound 194, N-[(2R)-2-Hydroxypropyl]-2-{[(2-{[(1S)-2-(1H-imidazol-1-yl)-1-phenylethyl]oxy}-5-oxo-5,6,7,8-tetrahydro-1-naphthalenyl)methyl]sulfanyl}benzamide]
0.2 | C[C@@H](O)CNC(=O)c1ccc(SCc2c(O[C@H](Cn3ccnc3)c3ccccc3)ccc3c2CCCC3=O)cc1 [Compound 195, N-[(2R)-2-Hydroxypropyl]-4-{[(2-{[(1S)-2-(1H-imidazol-1-yl)-1-phenylethyl]oxy}-5-oxo-5,6,7,8-tetrahydro-1-naphthalenyl)methyl]sulfanyl}benzamide]
